Patent US6358969B1, “3-desmethylrapamycin or derivatives thereof, processes for their preparation and their use as antifungal agents and immunosuppressants” (SmithKline Beecham p.l.c., priority 1991, dated 2002)
≈ marks a conversion by molar mass, not a printed value. Where two headings read alike, the source gives them in different places.

Experiments:
Format in all cases: cell-based
Aspergillus niger [1] = assay: Spectrum of activity, agar diffusion zones of inhibition; details: SAB agar, 24 hours, read-out: Zones of inhibition (diameter)
Method: (§1) Method—The spectrum of activity was determined by placing solutions of the compound, prepared in sodium phosphate buffer, pH 6.6, in wells in seeded Sabouraud's Dextrose Agar. Activity was assessed by measuring the zones of inhibition following incubation at 37° C. (yeasts and Aspergillus niger) or 30° C. (other filamentous fungi) for 24 hours.

[2] = system: Crytococcus neoformans 451; assay: as above; details: SAB agar, 24 hours, read-out: Zones of inhibition (diameter)
Method: as §1

[3] = system: Pityrosporum canis 0024RE; assay: as above; details: SAB agar, 24 hours, read-out: Zones of inhibition (diameter)
Method: as §1

Rhizopus oryzae 21602 = assay: as above; details: Rhizopus arrhizus, SAB agar, 24 hours, read-out: Zones of inhibition (diameter)
Method: as §1

Saccharomyces cerevisiae = assay: as above; details: SAB agar, 24 hours, read-out: Zones of inhibition (diameter)
Method: as §1

[4] = system: Hendersonula torulides TH65; assay: as above; details: SAB agar, 24 hours, read-out: Zones of inhibition (diameter)
Method: as §1

Paecilomyces varioti = assay: as above; details: SAB agar, 24 hours, read-out: Zones of inhibition (diameter)
Method: as §1

Candida albicans 73/079 = assay: as above; details: SAB agar, 24 hours, read-out: Zones of inhibition (diameter)
Method: as §1

[5] = system: Trichophyton mentagrophytes 569A; assay: as above; details: SAB agar, 24 hours, read-out: Zones of inhibition (diameter)
Method: as §1

Candida albicans = assay: Antifungal activity (stated characteristic of the compound)
Aspergillus niger [6] = assay: Minimal Inhibitory Concentration, broth microtitre dilution; details: 37° C., inoculum 10^4 spores/ml, read-out: Minimum Inhibitory Concentration (MIC)
Method: (§2) Method—The Minimal Inhibitory Concentration (MIC) was determined by diluting the compound in a broth medium in a microtitre tray. The organisms were diluted and added to the wells to provide a final inoculum of approximately 10^5 cells per ml or 10^4 fungal spores per ml. The trays were incubated at 37° C. and the turbidity of each well noted at intervals. The (MIC) was taken as the lowest concentration (in mg/ml) which prevented significant growth.

Candida albicans 731079 = assay: as above; details: 37° C., inoculum 10^5 cells/ml, read-out: Minimum Inhibitory Concentration (MIC)
Method: as §2

[7] = system: yeasts and filamentous fungi; assay: Agar diffusion test, overall spectrum of activity; details: summary of Table 1
Method: as §1

Question: For `COC1CC2CCC(C)C(O)(O2)C(=O)C(=O)N2CCCCC2C(=O)OC(C(C)CC2CCC(O)C(OC)C2)CC(=O)C(C)/C=C(\C)C(O)C(O)C(=O)C(C)CC(C)/C=C/C=C/C=C/1C` (stereo not drawn), which zone of inhibition at 100 µg/mL (Aspergillus niger [1]; CONC 100 μg/ml) is on record?
Answer: 46 mm

Question: What about the zone of inhibition at 500 µg/mL (Aspergillus niger [1]; CONC 500 μg/ml) of the same compound?
Answer: 47 mm

Question: And the zone of inhibition at 100 µg/mL ([2]; CONC 100 μg/ml)?
Answer: 29 mm

Question: What about the zone of inhibition at 500 µg/mL ([2]; CONC 500 μg/ml) of the same compound?
Answer: 29 mm

Question: What about the zone of inhibition at 100 µg/mL ([3]; CONC 100 μg/ml) of the same compound?
Answer: 0 mm

Question: What about the zone of inhibition at 500 µg/mL ([3]; CONC 500 μg/ml) of the same compound?
Answer: 0 mm

Question: And the zone of inhibition at 100 µg/mL (Rhizopus oryzae 21602; CONC 100 μg/ml)?
Answer: 46 mm

Question: What about the zone of inhibition at 500 µg/mL (Rhizopus oryzae 21602; CONC 500 μg/ml) of the same compound?
Answer: 47 mm

Question: What about the zone of inhibition at 100 µg/mL (Saccharomyces cerevisiae; CONC 100 μg/ml) of the same compound?
Answer: 34 mm

Question: What about the zone of inhibition at 500 µg/mL (Saccharomyces cerevisiae; CONC 500 μg/ml) of the same compound?
Answer: 33 mm

Question: And the zone of inhibition at 100 µg/mL ([4]; CONC 100 μg/ml)?
Answer: 33 mm

Question: What about the zone of inhibition at 500 µg/mL ([4]; CONC 500 μg/ml) of the same compound?
Answer: 36 mm

Question: And the zone of inhibition at 100 µg/mL (Paecilomyces varioti; CONC 100 μg/ml)?
Answer: 26 mm

Question: And the zone of inhibition at 500 µg/mL (Paecilomyces varioti; CONC 500 μg/ml)?
Answer: 28 mm

Question: And the zone of inhibition at 100 µg/mL (Candida albicans 73/079; CONC 100 μg/ml)?
Answer: 29 mm

Question: And the zone of inhibition at 500 µg/mL (Candida albicans 73/079; CONC 500 μg/ml)?
Answer: 29 mm

Question: And the zone of inhibition at 100 µg/mL ([5]; CONC 100 μg/ml)?
Answer: 42 mm

Question: What about the zone of inhibition at 500 µg/mL ([5]; CONC 500 μg/ml) of the same compound?
Answer: 43 mm

Question: And the “Antifungal activity against Candida albicans” value (Candida albicans)?
Answer: shows antifungal activity

Question: And the MIC (Aspergillus niger [6]; 24 h, day 1 of incubation)?
Answer: 16 µg/mL (≈ 17.8 µM)

Question: And the MIC (Aspergillus niger [6]; 48 h, day 2 of incubation)?
Answer: 32 µg/mL (≈ 35.5 µM)

Question: And the MIC (Candida albicans 731079; Candida albicans, 731079, 24 h, day 1 of incubation)?
Answer: 32 µg/mL (≈ 35.5 µM)

Question: What about the MIC (Candida albicans 731079; Candida albicans, 731079, 48 h, day 2 of incubation) of the same compound?
Answer: 32 µg/mL (≈ 35.5 µM)

Question: What about the “Spectrum of activity in the agar diffusion test” value [7] of the same compound?
Answer: broad spectrum activity
